Measured values as given in article PMC8893300, “A Dynamic Mass Redistribution Assay for the Human Sweet Taste Receptor Uncovers G-Protein Dependent Biased Ligands” (Frontiers in Pharmacology, 2022).
Like-named read-outs stand apart in the source and are kept apart here. Marks after values point to notes of the source that are not given here. Residues, ends and D or L forms follow the SMILES beside them.

Key:
[1] = target: T1, human sweet taste receptor (hT1R2/hT1R3) coupled to Gα15 (Homo sapiens, UniProt Q7RTX0+Q8TE23); experiment: FLIPR calcium mobilization assay, R2/R3 U2OS cells transduced with Gα15 baculovirus; assay type: cell-based; details: for ΔlogR FLIPR Mean: FLIPR-Gα15, operational model, logR minus sucralose logR; for Activity in FLIPR assay Emax: top asymptote of dose-response normalized to 1 mM sucralose; for ΔΔlogR Mean: ΔlogR FLIPR-Gα15 minus ΔlogR DMR
T1 construct: expressed in transfected cells
T1 sequence (Q8TE23 20-839): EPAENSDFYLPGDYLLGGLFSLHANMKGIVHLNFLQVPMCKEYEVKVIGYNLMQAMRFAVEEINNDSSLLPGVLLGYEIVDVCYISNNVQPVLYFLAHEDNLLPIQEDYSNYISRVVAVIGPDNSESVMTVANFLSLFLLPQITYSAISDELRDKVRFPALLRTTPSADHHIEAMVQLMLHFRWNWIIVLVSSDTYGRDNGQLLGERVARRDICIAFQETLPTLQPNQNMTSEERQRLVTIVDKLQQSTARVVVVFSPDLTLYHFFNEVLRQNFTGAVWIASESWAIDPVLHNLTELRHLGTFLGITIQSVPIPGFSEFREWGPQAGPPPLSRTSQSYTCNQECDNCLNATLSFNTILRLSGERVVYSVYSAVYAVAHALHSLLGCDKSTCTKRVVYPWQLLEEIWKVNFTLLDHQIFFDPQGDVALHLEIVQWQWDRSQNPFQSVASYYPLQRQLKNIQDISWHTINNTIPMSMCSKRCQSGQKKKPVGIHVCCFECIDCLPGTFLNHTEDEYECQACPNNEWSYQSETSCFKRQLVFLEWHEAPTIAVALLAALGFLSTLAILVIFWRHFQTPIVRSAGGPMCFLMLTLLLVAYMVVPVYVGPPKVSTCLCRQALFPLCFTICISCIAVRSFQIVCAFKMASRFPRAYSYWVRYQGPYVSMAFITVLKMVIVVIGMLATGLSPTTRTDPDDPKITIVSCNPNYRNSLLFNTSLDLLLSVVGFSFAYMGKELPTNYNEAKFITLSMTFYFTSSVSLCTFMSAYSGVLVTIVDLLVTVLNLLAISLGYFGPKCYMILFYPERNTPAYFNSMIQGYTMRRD
T1 sequence (Q7RTX0 21-852): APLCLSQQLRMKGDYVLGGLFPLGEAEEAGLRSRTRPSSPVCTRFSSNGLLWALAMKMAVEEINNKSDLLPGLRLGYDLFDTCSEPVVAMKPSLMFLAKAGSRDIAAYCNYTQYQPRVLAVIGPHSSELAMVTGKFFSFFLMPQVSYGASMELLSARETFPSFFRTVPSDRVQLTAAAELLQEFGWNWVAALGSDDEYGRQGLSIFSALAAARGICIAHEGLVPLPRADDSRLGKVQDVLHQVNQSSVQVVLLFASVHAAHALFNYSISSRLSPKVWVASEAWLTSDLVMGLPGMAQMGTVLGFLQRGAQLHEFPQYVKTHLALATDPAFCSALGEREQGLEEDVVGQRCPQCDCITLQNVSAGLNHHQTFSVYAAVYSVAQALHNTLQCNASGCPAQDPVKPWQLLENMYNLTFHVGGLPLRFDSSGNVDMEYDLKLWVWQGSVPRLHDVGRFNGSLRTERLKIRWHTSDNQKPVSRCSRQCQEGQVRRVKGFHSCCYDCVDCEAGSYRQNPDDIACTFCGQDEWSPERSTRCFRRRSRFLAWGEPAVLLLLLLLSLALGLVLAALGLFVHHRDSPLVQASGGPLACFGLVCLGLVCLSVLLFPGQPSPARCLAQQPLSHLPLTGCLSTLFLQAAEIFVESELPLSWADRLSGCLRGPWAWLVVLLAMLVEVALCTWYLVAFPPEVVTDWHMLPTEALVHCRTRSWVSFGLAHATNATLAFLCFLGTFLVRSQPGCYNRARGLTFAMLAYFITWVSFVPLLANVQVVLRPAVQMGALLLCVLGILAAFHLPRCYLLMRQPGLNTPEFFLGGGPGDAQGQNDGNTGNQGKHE
Protocol: The Gα15 coding sequence was inserted in the HindIII-NotI sites and recombinant virus was generated using the Bac-to-Bac system (Life Technologies). Virus was further amplified by propagation in Sf9 cells grown in suspension using Sf900-II media. Virus titers were determined by plaque assay on Sf9 cells.
Cells were gently mixed with the virus at a multiplicity of infection (MOI) of 5. Using a multidrop, 70 μl per well of the cell and virus mixture was dispensed in a 384-well clear bottom plate (Fisher). After 24 h of incubation in a humidified 37°C tissue culture incubator, trichostatin A was added to a final concentration of 0.3 μM and the cells were incubated for another 18–24 h at 34°C. On the day of the experiment, cells were loaded with 4 μM of the calcium indicator Fluo-4 AM (Invitrogen) in D-PBS for 1 h at room temperature. After washing the cells with D-PBS using a cell washer (BioTek) and a 30-minute rest time, the cell plate and the compound plate were transferred into the FLIPR-Tetra (Molecular Devices). […] Loading and the FLIPR assay were run as described above. When indicated, data for agonist dose-responses were normalized to data obtained with a maximum concentration of sucralose (1 mM) and then fitted and plotted using GraphPad Prism (San Diego, CA) and non-linear regression analysis.
(§1) This value, that we termed pEC50Ratio (sucralose) or pEC50R (sucralose), was calculated with EC50 values obtained in the two assay systems. This transformation also allowed determination of an average and a standard error for the pEC50R (sucralose). The two sets of data (DMR and FLIPR data) were then analyzed with an un-paired t-test (α = 0.05). To calculate relative efficacy bias between the two assays, we captured the top asymptote value from each activity-normalized dose-response curve, as provided by the curve fit, calculated an average and a standard deviation (sd) for each agonist and then analyzed the data pairs with an un-paired t-test (α = 0.05). […] The following steps were followed: 1) Using the PRISM software, we re-analyzed each ligand’s dose-response data obtained in each assay with non-linear regression and the users-defined equation “New Operational Model with TauKa ratios” and retrieved logR values from the fits. 2) Subtracted each ligand’s logR value with that of our standard, the sucralose logR value, obtained from the same data set (each ligand dose-response assay data used in this analysis was accompanied with a sucralose dose-response ran on the same day), producing the ΔlogR value for leach ligand in each assay. 3) Calculated the mean and SEM from ΔlogR replicates (from three to nine independent dose-response analysis, in the two different assays). 4) Calculated ΔΔlogR values by subtracting the averaged ligands’ ΔlogR FLIPR values with the averaged ligands’ ΔlogR DMR values.

[2] = target: T2, human sweet taste receptor (hT1R2/hT1R3) (Homo sapiens, UniProt Q7RTX0+Q8TE23); experiment: DMR assay (Epic reader) on R2/R3 U2OS cells, endogenous G proteins; assay type: cell-based; details: for EC50: R2/R3 U2OS cells, peak DMR response; for ΔlogR DMR Mean: Table 2, operational model, logR minus sucralose logR; for Activity in DMR assay Emax: top asymptote of dose-response normalized to 1 mM sucralose
T2 construct: expressed in transfected cells
T2 sequence (Q8TE23 20-839): T1 sequence (Q8TE23 20-839)
T2 sequence (Q7RTX0 21-852): T1 sequence (Q7RTX0 21-852)
Protocol: The plates were incubated in the tissue culture hood for 20 min to allow cells to settle evenly at the bottom of the microplate and further cultured at 37°C in an atmosphere of 5% CO2 for 18–24 h. The next day, the cells were subjected to functional analysis using DMR. […] When indicated, data for agonist dose-responses were normalized to data obtained with a maximum concentration of sucralose (1 mM) and then fitted and plotted using GraphPad Prism (San Diego, CA) and non-linear regression analysis.
as §1

[3] = Activity in FLIPR assay EC50, R2/R3 U2OS cells expressing Gα15
[4] = Activity in FLIPR assay pEC50, R2/R3 U2OS cells expressing Gα15
[5] = read-out: Activity in DMR assay EC50
[6] = read-out: Activity in DMR assay pEC50 (converted)
[7] = R2/R3 U2OS cells expressing Gα15, read-out: Activity in FLIPR assay EC50
[8] = R2/R3 U2OS cells expressing Gα15, read-out: Activity in FLIPR assay pEC50 (converted)

| SMILES | EC50 [1, 3] [µM] | EC50 [1, 4] [µM] | ΔlogR FLIPR Mean [1] | Activity in FLIPR assay Emax ([1]; Gα15) | Bias factor ([1]; inverse log of ΔΔlogR, FLIPR-Gα15 vs DMR) | ΔΔlogR Mean [1] | EC50 [2, 5] [µM] | EC50 [2, 6] [µM] | ΔlogR DMR Mean [2] | Activity in DMR assay Emax [2] | EC50 [1, 7] [µM] | EC50 [1, 8] [µM] | response in the FLIPR assay, in words ([1]; R2/R3 U2OS cells transduced with Gα15) | enhancement factor of the sucralose dose-response in the FLIPR assay ([1]; 25 μM SE-2, Gα15, mean ± sd, n = 4) [fold] | leftward shift in the sucralose dose-response in the DMR assay ([2]; 25 μM SE-2, mean ± sd, n = 3) [fold] | agonist activity on its own in the DMR assay, in words ([2]; 25 μM SE-2 at lower sucralose concentrations) |
| --- | --- | --- | --- | --- | --- | --- | --- | --- | --- | --- | --- | --- | --- | --- | --- | --- |
| C[C@@H](NC(=O)[C@@H](N)CC(=O)O)C(=O)NC1C(C)(C)SC1(C)C [Alitame] | 20 | 19.4 | 0.52 | 100 | 1.5 | 0.18 | 37 | 32.5 | 0.35 | 106 | – | – | – | – | – | – |
| COC(=O)[C@H](Cc1ccccc1)NC(=O)[C@@H](N)CC(=O)O [Aspartame] (H-Asp-Phe-OMe) | – | – | −0.74 | 106 | – | −0.03 | 910 | 771 | −0.72 | 143 | 354 | 352 | – | – | – | – |
| O=C(CO)[C@@H](O)[C@H](O)[C@H](O)CO [D-fructose] | – | – | – | – | – | – | – | – | – | – | – | – | readily detected | – | – | – |
| CCOc1ccc(NC(N)=O)cc1 [Dulcin] | – | – | 0.38 | 87**** | – | 0.18 | 33 | 30.7 | 0.20 | 57**** | – | 23.1 | – | – | – | – |
| O=C1NS(=O)(=O)c2ccccc21 [Saccharin] | – | – | −0.47 | 90**** | – | −0.16 | – | – | −0.31 | 145 | – | – | – | – | – | – |
| C=C1C[C@@]23CC[C@H]4[C@@](C)(CCC[C@@]4(C)C(=O)O[C@@H]4O[C@H](CO)[C@@H](O)[C@H](O)[C@H]4O)[C@@H]2CC[C@]1(O[C@@H]1O[C@H](CO)[C@@H](O)[C@H](O)[C@H]1O[C@@H]1O[C@H](CO)[C@@H](O)[C@H](O)[C@H]1O)C3 [Stevioside] | 51 | 50.1 | 0.13 | 102 | – | 0.04 | 127 | 114 | 0.09 | 141 | – | – | – | – | – | – |
| COC(=O)[C@H](Cc1ccccc1)NC(=O)[C@H](CC(=O)O)NC(=O)Nc1ccc(C#N)cc1 [Superaspartame] | – | – | 1.17 | 105 | – | 0.13 | 9.8 | 9.48 | 1.04 | 109 | 4.7 | 4.62 | – | – | – | – |

The next lines start with results.

| EC50 [1, 3] [µM] | EC50 [1, 4] [µM] | ΔlogR FLIPR Mean [1] | Activity in FLIPR assay Emax ([1]; Gα15) | Bias factor ([1]; inverse log of ΔΔlogR, FLIPR-Gα15 vs DMR) | ΔΔlogR Mean [1] | EC50 [2, 5] [µM] | EC50 [2, 6] [µM] | ΔlogR DMR Mean [2] | Activity in DMR assay Emax [2] | EC50 [1, 7] [µM] | EC50 [1, 8] [µM] | response in the FLIPR assay, in words ([1]; R2/R3 U2OS cells transduced with Gα15) | enhancement factor of the sucralose dose-response in the FLIPR assay ([1]; 25 μM SE-2, Gα15, mean ± sd, n = 4) [fold] | leftward shift in the sucralose dose-response in the DMR assay ([2]; 25 μM SE-2, mean ± sd, n = 3) [fold] | SMILES | agonist activity on its own in the DMR assay, in words ([2]; 25 μM SE-2 at lower sucralose concentrations) |
| --- | --- | --- | --- | --- | --- | --- | --- | --- | --- | --- | --- | --- | --- | --- | --- | --- |
| – | – | 1.67 | 164**** | – | 0.36 | – | 3.78 | 1.31 | 102 | 2.2 | 2.12 | – | – | – | CCCOc1ccc([N+](=O)[O-])cc1N [P-4000] | – |
| – | – | 2.15 | 159**** | – | 0.08 | 1.3 | 1.22 | 2.07 | 133 | 0.7 | 0.716 | – | – | – | Cc1cc(C)c2c(c1)[C@H](NC(=O)c1conc1C)CCC2 [S679] | – |
| – | – | 2.14 | 170**** | – | 0.22 | – | 1.51 | 1.91 | 130 | 0.7 | 0.665 | – | – | – | COCc1cncc(-c2ccc(C(C)(C)C(=O)NCC(C)C)cc2)n1 [S1313] | – |
| – | – | 1.45 | 98** | – | 0.07 | 4.3 | 4.09 | 1.38 | 97** | – | 2.28 | – | – | – | C[C@H](NC(=Nc1ccc(C#N)cc1)NCC(=O)O)c1ccccc1 [SC-45647] | – |
| – | – | – | – | – | – | – | – | – | – | – | – | – | 7.3 ± 0.9 | 5.1 ± 1.5 | Cc1sc2[nH]c(=O)nc(N)c2c1C [SE-2] | did not produce any agonist activity on its own |
